Reference: publication PMC8119466, “A screen of FDA-approved drugs identifies inhibitors of protein tyrosine phosphatase 4A3 (PTP4A3 or PRL-3)” (Scientific Reports, 2021)
Where a name gives a salt, the structure may show the parent alone. Read-outs that look alike come from different tables or passages of the source.

How the values were obtained:
Format in all cases: biochemical
recombinant PRL-1 = target: T1, recombinant PRL-1 (Homo sapiens, UniProt Q93096); test: In vitro phosphatase assay (DiFMUP hydrolysis), PRL-1
T1 construct: 6xHis (N, cleaved yes); made in house; host or cells: E. coli One Shot BL21 Star
T1 sequence (Q93096 1-173): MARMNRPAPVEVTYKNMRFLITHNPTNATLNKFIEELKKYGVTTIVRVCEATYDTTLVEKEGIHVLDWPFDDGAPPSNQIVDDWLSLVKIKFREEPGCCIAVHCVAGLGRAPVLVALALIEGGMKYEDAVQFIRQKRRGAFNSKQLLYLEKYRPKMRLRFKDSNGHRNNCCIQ

recombinant PRL-2 = target: T2, recombinant PRL-2 (Homo sapiens, UniProt Q12974); test: In vitro phosphatase assay (DiFMUP hydrolysis), PRL-2;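 further: PRL-2 activity read as DiFMUP hydrolysis after 20 min at room temperature with drug, enzyme first pre-reduced at 4 °C for 20 min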
T2 construct: 6xHis (N, cleaved yes); made in house; host or cells: E. coli One Shot BL21 Star
T2 sequence (Q12974 1-167): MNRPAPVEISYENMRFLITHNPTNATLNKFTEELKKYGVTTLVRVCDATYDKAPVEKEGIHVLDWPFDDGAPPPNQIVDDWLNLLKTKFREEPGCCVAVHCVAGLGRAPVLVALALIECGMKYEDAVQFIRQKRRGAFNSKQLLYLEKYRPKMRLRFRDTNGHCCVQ

recombinant PRL-3 = target: T3, recombinant PRL-3 (Homo sapiens, UniProt O75365); test: In vitro phosphatase assay (DiFMUP hydrolysis), PRL-3
T3 construct: 6xHis (N, cleaved yes); made in house; host or cells: E. coli One Shot BL21 Star

[1] = FDA-approved drug screen, activity compared to DMSO
[2] = FDA-approved drug screen, compared to DMSO

T3 sequence (O75365 whole entry): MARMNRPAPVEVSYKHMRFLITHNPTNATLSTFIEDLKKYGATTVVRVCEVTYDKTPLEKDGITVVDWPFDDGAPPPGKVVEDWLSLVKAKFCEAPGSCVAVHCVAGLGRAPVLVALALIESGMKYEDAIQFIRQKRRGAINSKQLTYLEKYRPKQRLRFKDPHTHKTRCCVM

Compound | % Phosphatase Activity (compared to DMSO) PRL-1 (recombinant PRL-1; [2]) [%] | % Phosphatase Activity (compared to DMSO) PRL-2 (recombinant PRL-2; [2]) [%] | % Phosphatase Activity (compared to DMSO) PRL-3 (recombinant PRL-3; [2]) [%] | also measured
CN[C@@H]1[C@H](O)[C@H](NC)[C@H]2O[C@@]3(O)C(=O)C[C@@H](C)O[C@H]3O[C@@H]2[C@H]1O.Cl.Cl [Spectinomycin HCl] | – | – | – | % Phosphatase Activity (compared to DMSO) PRL-1 (recombinant PRL-1; [1]): 109%; % Phosphatase Activity (compared to DMSO) PRL-2 (recombinant PRL-2; [1]): 110%; % Phosphatase Activity (compared to DMSO) PRL-3 (recombinant PRL-3; [1]): 77%
Capreomycin Sulfate | 95 | 95 | 113 | –
c1ccc2c(CC3=NCCN3)cccc2c1 [Naphazoline HCl] | 100 | 102 | 83 | –
Oc1c(Cl)cc(Cl)c(Cl)c1Cc1c(O)c(Cl)cc(Cl)c1Cl [Hexachlorophene, reference compound] | -2.83 | -9 | -4 | IC50 (recombinant PRL-1; 2.5 µM protein, DiFMUP at KM, read-out: Calculated IC50, PRL-1 phosphatase activity): 31 ± 4 µM; IC50 (recombinant PRL-2; 2.5 µM protein, DiFMUP at KM, read-out: Calculated IC50, PRL-2 phosphatase activity): 35 ± 10 µM; IC50 (recombinant PRL-3; 2.5 µM protein, DiFMUP at KM, read-out: Calculated IC50, PRL-3 phosphatase activity): 13 ± 1 µM
CCCc1ncc(C[n+]2ccccc2C)c(N)n1.Cl.[Cl-] [Amprolium HCl] | 97 | 97 | 94 | –
CC(=O)OCC[N+](C)(C)C [Acetylcholine Chloride] | 87 | 97 | 95 | –
COc1cc2c(cc1OC)CN(CCc1ccc(NC(=O)c3cccc4c(=O)c5cccc(OC)c5[nH]c34)cc1)CC2 [Elacridar (GF120918)] | 106 | 104 | 100 | –
Clc1cccc(Cl)c1N=C1NCCN1 [Clonidine HCl] | – | – | – | % Phosphatase Activity (compared to DMSO) PRL-1 (recombinant PRL-1): 118%; % Phosphatase Activity (compared to DMSO) PRL-2 (recombinant PRL-2): 115%; % Phosphatase Activity (compared to DMSO) PRL-3 (recombinant PRL-3): 85%
Cc1cccc(C(C)c2cnc[nH]2)c1C (stereo not drawn) [Medetomidine HCl] | – | – | – | % Phosphatase Activity (compared to DMSO) PRL-1 (recombinant PRL-1): 109%; % Phosphatase Activity (compared to DMSO) PRL-2 (recombinant PRL-2): 113%; % Phosphatase Activity (compared to DMSO) PRL-3 (recombinant PRL-3): 99%
COCCCN1CCC(NC(=O)c2cc(Cl)c(N)c3c2OCC3)CC1.O=C(O)CCC(=O)O [Prucalopride Succinat] | 76 | 77 | 85 | –
CCCNC(C)C(=O)Nc1ccccc1C (stereo not drawn) [Prilocaine] | 97 | 107 | 78 | –
CN(C)C(=O)Oc1ccc[n+](C)c1 [Pyridostigmine Bromide] | 106 | 109 | 77 | –
NC1=NCC2c3ccccc3Cc3ccccc3N12 (stereo not drawn) [Epinastine HCl] | – | – | – | % Phosphatase Activity (compared to DMSO) PRL-1 (recombinant PRL-1): 96%; % Phosphatase Activity (compared to DMSO) PRL-2 (recombinant PRL-2): 109%; % Phosphatase Activity (compared to DMSO) PRL-3 (recombinant PRL-3): 80%
Cc1ccc(N(CC2=NCCN2)c2cccc(O)c2)cc1 [Phentolamine Mesylate] | 92 | 117 | 90 | –
C[C@@H]1CC(=O)NN=C1c1ccc(NN=C(C#N)C#N)cc1 [Levosimendan] | 76 | 58 | 69 | –
CCC/N=C1\S/C(=C\c2ccc(OC[C@H](O)CO)c(Cl)c2)C(=O)N1c1ccccc1C [Ponesimod] | 88 | 79 | 86 | –
CC(C[N+](C)(C)C)OC(N)=O (stereo not drawn) [Bethanechol chloride] | 104 | 119 | 77 | –

Compound | % Phosphatase Activity (compared to DMSO) PRL-1 (recombinant PRL-1; [2]) [%] | % Phosphatase Activity (compared to DMSO) PRL-2 (recombinant PRL-2; [2]) [%] | % Phosphatase Activity (compared to DMSO) PRL-3 (recombinant PRL-3; [2]) [%] | also measured
COc1ccccc1N1CCN(CC(O)COc2cccc3ccccc23)CC1 (stereo not drawn) [Naftopidil] | 109 | 111 | 94 | –
Cc1cnc(C(=O)O)c[n+]1[O-] [Acipimox] | 97 | 102 | 95 | –
Nc1ccc(C(=O)[O-])c(O)c1.[Na+] [Sodium 4-Aminosalicylate] | – | – | – | % Phosphatase Activity (compared to DMSO) PRL-1 (recombinant PRL-1; [1]): 90%; % Phosphatase Activity (compared to DMSO) PRL-2 (recombinant PRL-2; [1]): 119%; % Phosphatase Activity (compared to DMSO) PRL-3 (recombinant PRL-3; [1]): 69%
Cc1ccsc1C(=CCCN1CCC[C@@H](C(=O)O)C1)c1sccc1C [Tiagabine] | – | – | – | % Phosphatase Activity (compared to DMSO) PRL-1 (recombinant PRL-1; [1]): 100%; % Phosphatase Activity (compared to DMSO) PRL-2 (recombinant PRL-2; [1]): 104%; % Phosphatase Activity (compared to DMSO) PRL-3 (recombinant PRL-3; [1]): 78%
c1cn2cc(-c3ccc4cn[nH]c4c3)nc(Nc3ccc(N4CCOCC4)cc3)c2n1 [GS-9973] | 294 | 209 | 104 | –
O=c1[nH]cnc2c1ncn2[C@H]1CC[C@@H](CO)O1 [Didanosine] | 95 | 114 | 85 | –
CCCNC(=O)NS(=O)(=O)c1ccc(Cl)cc1 [Chlorpropamide] | 98 | 105 | 80 | –
CN(C)CCN1C(=O)c2cccc3cc(N)cc(c23)C1=O [Amonafide] | 89 | 98 | 72 | –
NS(=O)(=O)c1cc(C(=O)O)c(NCc2ccco2)cc1Cl [Furosemide] | 97 | 107 | 114 | –
Cc1cccc([C@H](C)c2c[nH]cn2)c1C.Cl [Dexmedetomidine HCl (Precedex)] | – | – | – | % Phosphatase Activity (compared to DMSO) PRL-1 (recombinant PRL-1): 111%; % Phosphatase Activity (compared to DMSO) PRL-2 (recombinant PRL-2): 120%; % Phosphatase Activity (compared to DMSO) PRL-3 (recombinant PRL-3): 90%
Cc1ncc(CO)c(CO)c1O [Pyridoxine HCl] | 100 | 102 | 91 | –
Teneligliptin hydrobromide | – | – | – | % Phosphatase Activity (compared to DMSO) PRL-1 (recombinant PRL-1; [1]): 95%; % Phosphatase Activity (compared to DMSO) PRL-2 (recombinant PRL-2; [1]): 100%; % Phosphatase Activity (compared to DMSO) PRL-3 (recombinant PRL-3; [1]): 90%
CC(=O)Oc1cc2c(s1)CCN(C(C(=O)C1CC1)c1ccccc1F)C2 (stereo not drawn) [Prasugrel] | 91 | 88 | 79 | –
CC(=O)NO [Acetohydroxamic acid] | 91 | 111 | 75 | –
C=CCNC1=C2C[C@@H](C)C[C@H](OC)[C@H](O)[C@@H](C)/C=C(\C)[C@H](OC(N)=O)[C@@H](OC)/C=C\C=C(/C)C(=O)NC(=CC1=O)C2=O [17-AAG (Tanespimycin)] | 86 | 83 | 81 | –
Cc1cc(C)nc(NS(=O)(=O)c2ccc(N)cc2)n1 [Sulfamethazine] | – | – | – | % Phosphatase Activity (compared to DMSO) PRL-1 (recombinant PRL-1; [1]): 108%; % Phosphatase Activity (compared to DMSO) PRL-2 (recombinant PRL-2; [1]): 105%; % Phosphatase Activity (compared to DMSO) PRL-3 (recombinant PRL-3; [1]): 82%
